From patent US20070082880A1 (priority 2005, published 2007)
pIC50: −log10 of the molar value.

Molecular target: T1, human PKCθ full length enzyme (Homo sapiens, UniProt Q04759)
T1 construct: human PKCθ full length enzyme (Panvera Catalog No. P2996); purchased Panvera P2996
Experiment: PKCθ IMAP Assay
Format: biochemical
Conditions: average value when one or more samples were tested; ATP 6 uM, PKCθ 1 nM
Procedure, shortened: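 Full-length human PKCθ (1 nM final) with 6 uM ATP and 100 nM 5FAM-labelled peptide, 5% DMSO, 3.0 mM DTT in reaction buffer. 25 min at room temperature; IMAP bead binding 20 min, fluorescence polarization read. Compounds 2:1 serially diluted; no-ATP and no-enzyme wells as controls.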

T1 sequence (Q04759 whole entry): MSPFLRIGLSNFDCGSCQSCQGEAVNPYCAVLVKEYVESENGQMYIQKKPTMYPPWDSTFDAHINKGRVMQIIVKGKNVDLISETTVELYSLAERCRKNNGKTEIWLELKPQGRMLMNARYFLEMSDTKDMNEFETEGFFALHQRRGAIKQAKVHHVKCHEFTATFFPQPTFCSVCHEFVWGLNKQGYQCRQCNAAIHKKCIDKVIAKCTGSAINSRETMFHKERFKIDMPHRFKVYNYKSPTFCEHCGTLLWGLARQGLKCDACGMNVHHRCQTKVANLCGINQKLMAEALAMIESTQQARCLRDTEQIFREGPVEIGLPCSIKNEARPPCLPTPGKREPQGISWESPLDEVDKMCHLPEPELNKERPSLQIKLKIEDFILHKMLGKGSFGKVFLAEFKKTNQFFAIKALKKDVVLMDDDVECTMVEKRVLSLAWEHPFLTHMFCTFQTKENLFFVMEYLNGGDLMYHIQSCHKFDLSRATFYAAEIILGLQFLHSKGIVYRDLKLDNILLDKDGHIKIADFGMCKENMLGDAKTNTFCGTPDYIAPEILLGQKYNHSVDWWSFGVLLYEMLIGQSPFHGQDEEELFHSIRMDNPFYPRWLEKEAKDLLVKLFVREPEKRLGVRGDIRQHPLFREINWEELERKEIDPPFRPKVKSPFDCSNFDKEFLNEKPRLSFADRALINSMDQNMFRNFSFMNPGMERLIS

| Compound | pIC50 |
| --- | --- |
| COCc1ccccc1-c1cc2c(Nc3ccc4[nH]ccc4c3C)c(C#N)cnc2s1 [Compound 392, 2-[2-(methoxymethyl)phenyl]-4-[(4-methyl-1H-indol-5-yl)amino]thieno[2,3-b]pyridine-5-carbonitrile] | 6.75 |
| Cc1c(Nc2c(C#N)cnc3sc(-c4ccccc4F)cc23)ccc2[nH]ccc12 [Compound 388, 2-(2-fluorophenyl)-4-[(4-methyl-1H-indol-5-yl)amino]thieno[2,3-b]pyridine-5-carbonitrile] | 6.93 |
| COc1ccc(CN(C)C)c(-c2cc3c(Nc4ccc5[nH]ccc5c4C)c(C#N)cnc3s2)c1 [Compound 515, 2-{2-[(dimethylamino)methyl]-5-methoxyphenyl}-4-[(4-methyl-1H-indol-5-yl)amino]thieno[2,3-b]pyridine-5-carbonitrile] | 7.80 |
| COCCOc1ccc(-c2cc3c(Nc4ccc5[nH]ccc5c4C)c(C#N)cnc3s2)cc1OCCOC [Compound 513, 2-[3,4-bis(2-methoxyethoxy)phenyl]-4-[(4-methyl-1H-indol-5-yl)amino]thieno[2,3-b]pyridine-5-carbonitrile] | 5.79 |
| Cc1ccc2[nH]ccc2c1Nc1c(C#N)cnc2sc(-c3ccccc3)cc12 [Compound 319, 4-[(5-methyl-1H-indol-4-yl)amino]-2-phenylthieno[2,3-b]pyridine-5-carbonitrilee] | 5.95 |
| N#Cc1cnc2sc(/C=C/C(=O)Nc3cccnc3)cc2c1Nc1ccc2[nH]ccc2c1 [Compound 293, (2E)-3-[5-cyano-4-(1H-indol-5-ylamino)thieno[2,3-b]pyridin-2-yl]-N-pyridin-3-ylacrylamide] | 4.47 |
| CC(C)(C)OC(=O)N1CC=C(c2cc3c(Nc4ccc5[nH]ccc5c4)c(C#N)cnc3s2)CC1 [Compound 419, tert-butyl 4-[5-cyano-4-(1H-indol-5-ylamino)thieno[2,3-b]pyridin-2-yl]-3,6-dihydropyridine-1(2H)-carboxylate] | 6.02 |
| COc1ccc(CN(C)C)cc1-c1cc2c(Nc3ccc4[nH]ccc4c3)c(C#N)cnc2s1 [Compound 155, 2-{5-[(dimethylamino)methyl]-2-methoxyphenyl}-4-(1H-indol-5-ylamino)thieno[2,3-b]pyridine-5-carbonitrile] | 7.42 |
| Cc1c(Nc2c(C#N)cnc3sc(-c4cccc(O)c4)cc23)ccc2[nH]ccc12 [Compound 437, 2-(3-hydroxyphenyl)-4-[(4-methyl-1H-indol-5-yl)amino]thieno[2,3-b]pyridine-5-carbonitrile] | 7.96 |
| Cc1c(Nc2c(C#N)cnc3sc(-c4cccc(NS(=O)(=O)N(C)C)c4)cc23)ccc2[nH]ccc12 [Compound 509, N′-(3-{5-cyano-4-[(4-methyl-1H-indol-5-yl)amino]thieno[2,3-b]pyridin-2-yl}phenyl)-N,N-dimethylsulfamide] | 7.29 |
| Cc1c(Nc2c(C#N)cnc3sc(-c4cccc(NCCN(C)C)c4)cc23)ccc2[nH]ccc12 [Compound 394, 2-(3-{[2-(dimethylamino)ethyl]amino}phenyl)-4-[(4-methyl-1H-indol-5-yl)amino]thieno[2,3-b]pyridine-5-carbonitrile] | 8.00 |
| Cc1c(Nc2c(C#N)cnc3sc(-c4cc5cc(C=O)ccc5s4)cc23)ccc2[nH]ccc12 [Compound 374, 2-(5-formyl-1-benzothien-2-yl)-4-[(4-methyl-1H-indol-5-yl)amino]thieno[2,3-b]pyridine-5-carbonitrile] | 6.85 |
| CN(C)Cc1cccc(-c2cc3c(Nc4cccnc4)c(C#N)cnc3s2)c1 [Compound 326, 2-{3-[(dimethylamino)methyl]phenyl}-4-(pyridin-3-ylamino)thieno[2,3-b]pyridine-5-carbonitrile] | 4.51 |
| Cc1c(Nc2c(C#N)cnc3sc(-c4ccc5ccccc5c4)cc23)ccc2[nH]ccc12 [Compound 362, 4-[(4-methyl-1H-indol-5-yl)amino]-2-(2-naphthyl)thieno[2,3-b]pyridine-5-carbonitrile] | 7.14 |
| N#Cc1cnc2sc(C(=O)N3CCCC3)cc2c1Nc1cccc2[nH]ccc12 [Compound 264, 4-(1H-indol-4-ylamino)-2-(pyrrolidin-1-ylcarbonyl)thieno[2,3-b]pyridine-5-carbonitrile] | 6.17 |
| C=C/C=C/c1cc2c(Nc3ccc4[nH]ccc4c3)c(C#N)cnc2s1 [Compound 270, 2-[(1E)-buta-1,3-dien-1-yl]-4-(1H-indol-5-ylamino)thieno[2,3-b]pyridine-5-carbonitrile] | 6.70 |
| CN(C)CCN1CCN(Cc2cccc(-c3cc4c(Nc5ccc6[nH]ccc6c5)c(C#N)cnc4s3)c2)CC1 [Compound 163, 2-[3-({4-[2-(dimethylamino)ethyl]piperazin-1-yl}methyl)phenyl]-4-(1H-indol-5-ylamino)thieno[2,3-b]pyridine-5-carbonitrile] | 6.89 |
| COc1ccc(C(=O)N(C)C)cc1-c1cc2c(Nc3ccc4[nH]ccc4c3C)c(C#N)cnc2s1 [Compound 369, 3-{5-cyano-4-[(4-methyl-1H-indol-5-yl)amino]thieno[2,3-b]pyridin-2-yl}-4-methoxy-N,N-dimethylbenzamide] | 7.52 |
| N#Cc1cnc2sc(CN3CCN(c4ccccc4)CC3)cc2c1Nc1ccc2[nH]ccc2c1 [Compound 269, 4-(1H-indol-5-ylamino)-2-[(4-phenylpiperazin-1-yl)methyl]thieno[2,3-b]pyridine-5-carbonitrile] | 5.39 |
| CS(=O)(=O)c1cccc(-c2cc3c(Nc4ccc5[nH]ccc5c4)c(C#N)cnc3s2)c1 [Compound 239, 4-(1H-indol-5-ylamino)-2-[3-(methylsulfonyl)phenyl]thieno[2,3-b]pyridine-5-carbonitrile] | 5.96 |
| Cc1c(Nc2c(C#N)cnc3sc(-c4csc(CN(C)C)c4)cc23)ccc2[nH]ccc12 [Compound 468, 2-{5-[(dimethylamino)methyl]-3-thienyl}-4-[(4-methyl-1H-indol-5-yl)amino]thieno[2,3-b]pyridine-5-carbonitrile] | 7.80 |
| Cc1c(Nc2c(C#N)cnc3sc(-c4ccc(S(=O)(=O)N(C)CCN(C)C)cc4)cc23)ccc2[nH]ccc12 [Compound 346, 4-{5-cyano-4-[(4-methyl-1H-indol-5-yl)amino]thieno[2,3-b]pyridin-2-yl}-N-[2-(dimethylamino)ethyl]-N-methylbenzenesulfonamide] | 7.32 |
| COc1ccc(C=O)cc1-c1cc2c(Nc3ccc4[nH]ccc4c3C)c(C#N)cnc2s1 [Compound 338, 2-(5-formyl-2-methoxyphenyl)-4-[(4-methyl-1H-indol-5-yl)amino]thieno[2,3-b]pyridine-5-carbonitrile] | 7.85 |
| COc1ccc(CN2CCN(C)CC2)cc1-c1cc2c(Nc3ccc4[nH]ccc4c3C)c(C#N)cnc2s1 [Compound 461, 2-{2-methoxy-5-[(4-methylpiperazin-1-yl)methyl]phenyl}-4-[(4-methyl-1H-indol-5-yl)amino]thieno[2,3-b]pyridine-5-carbonitrile] | 8.22 |

Next, values leading:

| pIC50 | Compound |
| --- | --- |
| 4.79 | CN(C)Cc1cccc(-c2cc3c(Nc4ccncc4)c(C#N)cnc3s2)c1 [Compound 327, 2-{3-[(dimethylamino)methyl]phenyl}-4-(pyridin-4-ylamino)thieno[2,3-b]pyridine-5-carbonitrile] |
| 6.98 | Cc1c(Nc2c(C#N)cnc3sc(-c4ccccc4OC[C@@H](C)O)cc23)ccc2[nH]ccc12 [Compound 490, 2-(2-{[(2R)-2-hydroxypropyl]-oxy}phenyl)-4-[(4-methyl-1H-indol-5-yl)amino]thieno[2,3-b]pyridine-5-carbonitrile] |
| 7.44 | Cc1c(Nc2c(C#N)cnc3sc(-c4cccc(C(=O)N(C)C)c4)cc23)ccc2[nH]ccc12 [Compound 353, 3-{5-cyano-4-[(4-methyl-1H-indol-5-yl)amino]thieno[2,3-b]pyridin-2-yl}-N,N-dimethylbenzamide] |
| 5.78 | N#Cc1cnc2sc(C(=O)Nc3cccnc3)cc2c1Nc1ccc2[nH]ccc2c1 [Compound 251, 5-cyano-4-(1H-indol-5-ylamino)-N-pyridin-3-ylthieno[2,3-b]pyridine-2-carboxamide] |
| 8.05 | Cc1c(Nc2c(C#N)cnc3sc(-c4cccc(C(=O)NCCN(C)C)c4)cc23)ccc2[nH]ccc12 [Compound 339, 3-{5-cyano-4-[(4-methyl-1H-indol-5-yl)amino]thieno[2,3-b]pyridin-2-yl}-N-[2-(dimethylamino)ethyl]benzamide] |
| 6.91 | CN(C)CCNC(=O)c1cccc(-c2cc3c(Nc4ccc5[nH]ccc5c4)c(C#N)cnc3s2)c1 [Compound 335, 3-[5-cyano-4-(1H-indol-5-ylamino)thieno[2,3-b]pyridin-2-yl]-N-[2-(dimethylamino)ethyl]benzamide] |
| 6.96 | Cc1c(Nc2c(C#N)cnc3sc(-c4ccc(S(=O)(=O)NCCO)cc4)c(C)c23)ccc2[nH]ccc12 [Compound 431, 4-{5-cyano-3-methyl-4-[(4-methyl-1H-indol-5-yl)amino]thieno[2,3-b]pyridin-2-yl}-N-(2-hydroxyethyl)benzenesulfonamide] |
| 7.85 | Cc1c(Nc2c(C#N)cnc3sc(-c4ccc(CN(C)C)cc4)cc23)ccc2[nH]ccc12 [Compound 113, 2-{4-[(dimethylamino)methyl]phenyl}-4-[(4-methyl-1H-indol-5-yl)amino]thieno[2,3-b]pyridine-5-carbonitrile] |
| 7.23 | Cc1c(Nc2c(C#N)cnc3sc(-c4ccc(F)c(C(=O)N(C)C)c4)cc23)ccc2[nH]ccc12 [Compound 518, 5-{5-cyano-4-[(4-methyl-1H-indol-5-yl)amino]thieno[2,3-b]pyridin-2-yl}-2-fluoro-N,N-dimethylbenzamide] |
| 7.22 | Cc1c(Nc2c(C#N)cnc3sc(-c4cccc(C(=O)NCCN(C)C)c4)c(C)c23)ccc2[nH]ccc12 [Compound 429, 3-{5-cyano-3-methyl-4-[(4-methyl-1H-indol-5-yl)amino]thieno[2,3-b]pyridin-2-yl}-N-[2-(dimethylamino)ethyl]benzamide] |
| 5.88 | N#Cc1c[n+]([O-])c2sccc2c1Nc1ccc2[nH]ccc2c1 [Compound 499, 4-(1H-indol-5-ylamino)thieno[2,3-b]pyridine-5-carbonitrile-7-oxide] |
